{"source": "patent US10150773B2", "about": "“N-substituted 8-[(2,6-difluorobenzyl)oxy]-2,6- dimethylimidazo[1,2-a]pyrazin-3-carboxamide derivatives as stimulators of soluble guanylate cyclase (SGC) for the treatment of cardiovascular diseases” (Bayer Pharma Aktiengesellschaft, priority 2015, dated 2018)"}
{"test_system": "recombinant guanylate cyclase reporter cell line", "experiment": "Effect on a recombinant guanylate cyclase reporter cell line", "type": "cell-based", "conditions": "in some cases mean values from individual determinations", "procedure": "B-2. Effect on a Recombinant Guanylate Cyclase Reporter Cell Line\nThe cellular activity of the compounds according to the invention is determined using a recombinant guanylate cyclase reporter cell line, as described in F. Wunder et al., Anal. Biochem. 339, 104-112 (2005).\nRepresentative MEC values (MEC=minimum effective concentration) for the compounds of the invention are shown in the table below (in some cases as mean values from individual determinations): […]", "units": {"MEC (minimum effective concentration)": "µM"}}
{"smiles": "Cc1cn2c(C(=O)N[C@@](C)(CO)c3nnc(C)s3)c(C)nc2c(OCc2c(F)cccc2F)n1", "note": "[Example 1, ent-8-[(2,6-Difluorobenzyl)oxy]-N-[(2S)-1-hydroxy-2-(5-methyl-1,3,4-thiadiazol-2-yl)propan-2-yl]-2,6-dimethylimidazo[1,2-a]pyrazine-3-carboxamide]", "MEC (minimum effective concentration)": 0.65}
{"smiles": "Cc1cn2c(C(=O)NCC(C)(N)CC[Si](C)(C)C)c(C)nc2c(OCc2c(F)cccc2F)n1", "note": "(single isomer, unassigned; enantiomer a) [Example 4, ent-N-[2-Amino-2-methyl-4-(trimethylsilyl)butyl]-8-[(2,6-difluorobenzyl)oxy]-2,6-dimethylimidazo[1,2-a]pyrazine-3-carboxamide (Enantiomer A)]", "MEC (minimum effective concentration)": 1.0}
{"smiles": "Cc1cn2c(C(=O)NC(C)(CO)c3nnn(C(F)F)n3)c(C)nc2c(OCc2c(F)cccc2F)n1", "note": "(racemic) [Example 2, rac-8-[(2,6-Difluorobenzyl)oxy]-N-{2-[2-(difluoromethyl)-2H-tetrazol-5-yl]-1-hydroxypropan-2-yl}-2,6-dimethylimidazo[1,2-a]pyrazine-3-carboxamide]", "MEC (minimum effective concentration)": 0.10}
{"smiles": "Cc1cn2c(C(=O)NCC(C)(N)CC[Si](C)(C)C)c(C)nc2c(OCc2c(F)cccc2F)n1", "note": "(single isomer, unassigned; enantiomer b) [Example 5, ent-N-[2-Amino-2-methyl-4-(trimethylsilyl)butyl]-8-[(2,6-difluorobenzyl)oxy]-2,6-dimethylimidazo[1,2-a]pyrazine-3-carboxamide (Enantiomer B)]", "MEC (minimum effective concentration)": 1.0}
{"smiles": "[2H]C([2H])([2H])CC(C)(N)CNC(=O)c1c(C)nc2c(OCc3c(F)cccc3F)nc(C)cn12", "note": "(single isomer, unassigned; enantiomer a) [Example 3, ent-N-[2-Amino-2-methyl(4,4,4-^2H3)butyl]-8-[(2,6-difluorobenzyl)oxy]-2,6-dimethylimidazo[1,2-a]pyrazine-3-carboxamide (Enantiomer A)]", "MEC (minimum effective concentration)": 0.65}
